Converted amounts (≈) assume the structure as drawn.
Assays:
IOMM-Lee cells = assay: MTT cell viability, killing meningioma cells (IOMM-Lee); format: cell-based, Human; details: IOMM-Lee grade III malignant meningioma cells, 72 hours; for IC50: Homo sapiens, read-out: IC50 (concentration to achieve 50% lethal rate)
Source text: (§1) In the following Examples, the used materials and equipment are described as below: • 1. Human meningioma cell lines: IOMM-Lee cells (purchased from ATCC; CRL-3370;
(§2) belonging to grade III malignant meningioma cells), AMGI-0102 primary culture cells (obtained by the approval according to the human subject research of Hualien Tzu Chi Hospital (Buddhist Tzu Chi Medical Foundation); belonging to grade I benign meningioma cells). • 2. […] Medium for AMGI-0102 cells: DMEM/F12 medium (Dulbecco's Modified Eagle Medium/F12 with L-glutamine, HEPES; purchased from HyClone; product number: SH30023.02) containing 10% Fetal Bovine Serum and 1% penicillin/streptomycin. • 4. Z-butylidenephthalide (Z-BP): provided by Everfront Biotech Inc.; purity 99.8%. • 5. E-butylidenephthalide (E-BP): provided by Everfront Biotech Inc.; purity 98.01%. • 6. 2-pentanolybenzoic acid (BP-OH): provided by Everfront Biotech Inc.; purity 99.6%. • 7. Sodium^2-pentanoylbenzoate (BPONa): provided by Everfront Biotech Inc.; purity 99.7%. • 8. 5-fluorouracil (5-FU): purchased from Sigma; product number: F6627. • 9. Carmustine (BCNU): purchased from Sigma; product number: SI-00400-100MG. • 10. MTIC: purchased from Biosynth Carbosynth; product number: FM26098. • 11. MTT (Thiazolyl Blue tetrazolium bromide, 3-[4,5-dimethylthiahiazo-2-yl]-2,4-dipheny-tetrazolium bromide): purchased from ALFA Aesar™; product number: L11939-000000-16AF. • 12. ELISA reader: purchased from Thermo Fisher Scientific; model number: 22662. • 13. […]
IOMM-Lee cells and AMGI-0102 cells were independently seeded in a 96-well plate (1×10^4 cells/well), and the 96-well plate was placed under an environment of 37° C. and 5% CO2 for 24 hours. After that, the cells in the 96-well plate were subjected to the following procedures: • (a) the cells in different wells were cultured with a medium containing Z-butylidenephthalide, E-butylidenephthalide, 2-pentanolybenzoic acid, or sodium^2-pentanoylbenzoate, and the 96-well plate was placed under an environment of 37° C. and 5% CO2 for 72 hours; • (b) MTT was added into each well (the final concentration is 0.5 mg/ml), and the 96-well plate was placed under an environment of 37° C. and 5% CO2 for 1.5 hours; • (c) the medium of each well was removed, and then dimethyl sulfoxide was added (100 μl/well); and • (d) an absorbance value of each well at 595 nm was measured by an ELISA reader. […]

AMGI-0102 cells = assay: MTT cell viability, killing meningioma cells (AMGI-0102); format: cell-based, Human; details: AMGI-0102 grade I benign meningioma primary culture cells, 72 hours
Source text: as §1
as §2, with “MTT (Thiazolyl Blue tetrazolium bromide, 3-[4,5-dimethylthiahiazo-2-yl]-2,4-dipheny-tetrazolium bromide): purchased from ALFA Aesar™; product number: L11939-000000-16AF. • 12.” left out

p-JNK protein = assay: Western Blotting of p-JNK protein in IOMM-Lee cells; format: cell-based, Human; details: IOMM-Lee cells, 0, 16.8 and 33.6 μg/ml, 24 hours, FIG. 1
Source text: (§3) It is known that the activations (phosphorylation) of ERK (extracellular signal-regulated kinase) protein and JNK (c-Jun N-terminal kinase) protein in the protein kinase family are related to the proliferation of tumor cells. The aforesaid facts can be found in such as: “The ERK and JNK pathways in the regulation of metabolic reprogramming ” Oncogene. 2019; 38: 2223-2240; “ERK Inhibitor LY3214996 Targets ERK Pathway-Driven Cancers: A Therapeutic Approach Toward Precision Medicine.” Mol Cancer Ther. 2020 February; 19(2):325-336; and “The novel JNK inhibitor AS602801 inhibits cancer stem cells in vitro and in vivo.” Oncotarget. 2016 May 10; 7(19):27021-32, which are entirely incorporated hereinto by reference. Therefore, if the activations of ERK protein and JNK protein in tumor cells can be reduced, the meningioma growth will be inhibited.
(§4) IOMM-Lee cells were seeded in a 10 cm culture dish ([…]), and the dish was placed under an environment of 37° C. and 5% CO2 for 24 hours. Then, the cells in different dishes were independently cultured with a medium containing Z-butylidenephthalide at concentrations of 0, 16.8 and 33.6 μg/ml. […] Finally, the expressions of the inactivated JNK protein and ERK protein, and the activated p-JNK protein and p-ERK protein in the cells were detected by Western Blotting. […]

p-ERK protein = assay: Western Blotting of p-ERK protein in IOMM-Lee cells; format: cell-based, Human; details: IOMM-Lee cells, 0, 16.8 and 33.6 μg/ml, 24 hours, FIG. 1
Source text: as §3, §4

grade III meningioma = assay: Human test: tumor size by T1-weighted MRI after wafer implantation; format: in vivo; details: one subject with grade III meningioma; six wafers (75 mg Z-butylidenephthalide per wafer) implanted in resection cavity, plus oral temozolomide; up to 224 days after operation
Description: In this example, depending on the approval of the Research Ethics Committee Hualien Tzu Chi Hospital (Buddhist Tzu Chi Medical Foundation; SP109-04), meningioma patients were administered with Z-butylidenephthalide to observe the effects of the compounds of the present invention on inhibiting meningioma growth.
During the surgical operation for resecting meningioma in a subject (suffered with grade III meningioma), six wafers containing Z-butylidenephthalide (75 mg of Z-butylidenephthalide per wafer) were implanted into the cavity generated by resecting meningioma. The subject also took 150 mg/m^2 of body surface area/day (the first treatment course) or 200 mg/m^2 of body surface area/day (the second to sixth treatment course) of temozolomide via oral administration every day post-operation. […] On the other hand, the tumor size in the pictures of the subject's brain (at pre-operation, and post-operative days 1, 28, 84, 168, and 224), obtained by T1-weighted magnetic resonance imaging, was also calculated by using StealthStation S7 software (purchased from Medtronic company, US).

Compound: 2-pentanolybenzoic acid
- IC50 (concentration to achieve 50% lethal rate) (IOMM-Lee cells): 304.3 µg/mL
- IC50 (concentration to achieve 50% lethal rate) (AMGI-0102 cells): 1286.3 µg/mL

Compound: CCC/C=C1\OC(=O)c2ccccc21 [Z-butylidenephthalide]
- IC50 (IOMM-Lee cells): 33.5 µg/mL (≈ 178 µM)
- IC50 (AMGI-0102 cells; Homo sapiens, read-out: IC50 (concentration to achieve 50% lethal rate)): 94.5 µg/mL (≈ 502 µM)
- expression of p-JNK protein (p-JNK protein): significantly decreased
- expression of p-ERK protein (p-ERK protein): significantly decreased
- tumor size of the subject (grade III meningioma): no change in the tumor size

Compound: CCC/C=C1/OC(=O)c2ccccc21 [E-butylidenephthalide]
- IC50 (IOMM-Lee cells): 306 µg/mL (≈ 1630 µM)

Compound: CCCCC(=O)c1ccccc1C(=O)[O-].[Na+] [sodium 2-pentanoylbenzoate]
- IC50 (IOMM-Lee cells): 365 µg/mL
